How the values were obtained:
[1] = Soluble amlodipine in isolated solids (purified water, pH 5.3, tumbled 66 hours, HPLC); format: physicochemical; details: pH 5.3, aqueous buffer, thermodynamic from solid
Experimental: Batches 1A-1F had different amlodipine content in the supernatants than the amlodipine besylate control indicating formation of new salt forms. […] Aliquots of each solid were weighed into 15 mL polypropylene centrifuge tubes in duplicate except for batch 1A which was a single determination. Purified water was added to each tube and the pH of the resulting suspension adjusted to 5.3 with anhydrous citric acid or anhydrous sodium citrate powder as needed. A control was also prepared in duplicate containing only purified water and amlodipine besylate at pH 5.3. The tubes were capped, covered in foil to block light, and allowed to tumble end-over-end at ambient temperature for 66 hours. The suspensions were then filtered through 0.45 micron nylon filters and the resulting filtrates analyzed by HPLC for amlodipine content.

[2] = Amlodipine content in supernatant of amlodipine salt batches (0.45 micron filtration, HPLC); format: physicochemical; details: batches prepared by mixing; ~10-fold molar salt forming agent; polysorbate 80 in water
Experimental: Amlodipine salts were prepared according to the formulas in Table 1 and Table 2. The formulations in Table 1 were prepared by adding purified water to a glass container containing a magnetic stir-bar and mixing with an external magnetic stir-plate. The polysorbate 80 was added and allowed to dissolve with mixing for a minimum of 10 minutes. Amlodipine besylate was then added and dispersed in the solution with mixing for a minimum of 10 minutes. The salt forming agent was then added to the suspension and the resulting suspension was mixed for an additional 30 minutes. The amount of the added salt forming agent was approximately 10-fold the amount of amlodipine on a mole basis. A control formulation was prepared to provide a solubility value for amlodipine besylate.
The formulations in Table 2 were prepared by adding purified water to a glass container positioned in an ultrasonic bath. Mixing was initiated with an overhead mixer and impeller. The polysorbate 80 was added and allowed to dissolve with mixing for a minimum of 10 minutes. Amlodipine besylate was then added and dispersed in the solution with mixing for a minimum of 10 minutes. […]
An aliquot of each suspension was filtered through a 0.45 micron nylon filter and the supernatant analyzed by an HPLC method for amlodipine content. […] Detection was by UV absorbance at 237 nm.

solubility at 66 h ([1]; Tube 1, pH adjusted to 5.3, ambient temperature): 1080 µg/mL | solubility at 66 h ([1]; Tube 2, pH adjusted to 5.3, ambient temperature): 1080 µg/mL | Amlodipine content in supernatant [2]: 4.80 mg/mL
Compound: CCOC(=O)C1=C(COCCN)NC(C)=C(C(=O)OC)C1c1ccccc1Cl (stereo not drawn) [Control, Amlodipine besylate]

Reference: patent publication US12383498B2, “Amlodipine formulations” (Azurity Pharmaceuticals, Inc., priority 2018, dated 2025)
